From ChEMBL document CHEMBL3399996, “Marine natural products as inhibitors of cystathionine beta-synthase activity” (Bioorg Med Chem Lett, 2015) come the findings set out here.

SMILES strings stand for the structures.

The assay deals with T1, Cystathionine beta-synthase (Homo sapiens, UniProt P35520).
T1 sequence (P35520 whole entry): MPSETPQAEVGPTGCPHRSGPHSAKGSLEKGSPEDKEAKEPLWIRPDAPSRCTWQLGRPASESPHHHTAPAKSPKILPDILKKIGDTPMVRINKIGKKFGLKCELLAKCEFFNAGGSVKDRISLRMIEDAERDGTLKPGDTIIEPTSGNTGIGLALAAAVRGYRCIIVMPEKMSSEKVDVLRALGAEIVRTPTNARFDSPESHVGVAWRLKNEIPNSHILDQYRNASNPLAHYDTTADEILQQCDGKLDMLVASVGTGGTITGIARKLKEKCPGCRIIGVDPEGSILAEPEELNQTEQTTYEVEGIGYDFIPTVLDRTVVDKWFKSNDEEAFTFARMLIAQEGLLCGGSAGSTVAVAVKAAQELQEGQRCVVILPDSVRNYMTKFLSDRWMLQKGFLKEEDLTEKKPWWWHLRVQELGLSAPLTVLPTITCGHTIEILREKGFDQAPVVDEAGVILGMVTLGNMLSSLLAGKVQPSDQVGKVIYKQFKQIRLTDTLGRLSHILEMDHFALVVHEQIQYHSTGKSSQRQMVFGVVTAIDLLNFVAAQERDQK
The assay can be described thus: Inhibition of full-length wild-type cystathionine beta-synthase (unknown origin) assessed as inhibition of H2S production by fluorescence assay in presence of S-adenosylmethionine.
In general, IC50 refers to the concentration that inhibits the measured activity by half. For `NC(=O)c1cc(Br)c(Br)[nH]1`, the IC50 came to 156 µM.

Turning to `COc1cc(/C=C2\NC(=S)NC2=O)ccc1OC(C)=O`, the 50% inhibitory concentration (IC50) came to 83 µM.

With `O=C1NC(=S)N/C1=C\c1ccc(O)c(O)c1`, the IC50 was determined as 125 µM.

In the case of `O=C1C=C(c2cc(Br)c(O)c(Br)c2)/C(=C/c2cc(Br)c(O)c(Br)c2)O1` [RUBROLIDE A], the IC50 came to 108 µM.

Turning to `COc1cc(/C=C2\N=C(SC)N(C)C2=O)ccc1O`, the IC50 stood at 87 µM.

Turning to `O=C1NC(=S)N/C1=C\c1ccccc1`, the IC50 is 170 µM.

In the case of `COc1cc(/C=C2\NC(=S)NC2=O)ccc1O`, the IC50 came to 187 µM.

Regarding `C[C@@]12CCC(=O)c3coc(c31)C(=O)c1cc3cccc(OS(=O)(=O)O)c3cc12`, the IC50 stood at 136 µM.
